# pKd: −log10 of the molar value.
# Biological target: Baculoviral IAP repeat-containing protein 5 (Homo sapiens, UniProt O15392)
# Experiment: Binding affinity to human survivin expressed in Escherichia coli BL21 cells after 30 mins
# Conditions: not given
# Sequence of Baculoviral IAP repeat-containing protein 5 (O15392 whole entry): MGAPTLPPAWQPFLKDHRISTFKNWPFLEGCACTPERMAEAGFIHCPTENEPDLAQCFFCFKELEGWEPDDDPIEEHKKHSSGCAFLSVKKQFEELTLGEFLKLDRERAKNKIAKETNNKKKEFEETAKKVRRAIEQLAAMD
row,SMILES,pKd
1,CCc1oc2ccccc2c1C(=O)c1cc(I)c(O)c(I)c1 [BENZIODARONE],5.10
2,CC1(C)NC(=O)N(C/C(COc2ccc(-c3ccc(OC(F)(F)F)cc3)cc2)=N/O)C1=O,> 5.00
3,N#Cc1c(-c2ccccc2)cc(-c2cc(Br)ccc2O)[nH]c1=O,5.30
4,Clc1cccc(Nc2ccc3ccccc3c2)c1,> 5.00
5,Cc1ccnc(NC(=O)C2CCNCC2)c1,3.89
6,N#Cc1c(-c2cc(-c3ccccc3)ccc2Cl)cc(-c2cc(Br)ccc2O)[nH]c1=O,< 5.37
7,N#Cc1c(-c2ccccc2)cc(-c2ccccc2O)[nH]c1=O,4.12

# System: not listed separately
# Experiment: Solubility by nephelometry
# Assay type: physicochemical
# Conditions: not given
row,solubility kinetic [µM],SMILES
1,> 32,CC(=O)N1CCC(C(=O)N(C)Cc2cc(Cl)cc(-c3cc(-c4cc(C(F)(F)F)ccc4Cl)c(C#N)c(=O)[nH]3)c2O)CC1
2,> 32,COCC(=O)N1CCC(C(=O)N(C)Cc2cc(Cl)cc(-c3cc(-c4cc(C(F)(F)F)ccc4Cl)c(C#N)c(=O)[nH]3)c2O)CC1
3,> 32,CN(Cc1cc(Cl)cc(-c2cc(-c3cc(C(F)(F)F)ccc3Cl)c(C#N)c(=O)[nH]2)c1O)C(=O)C1CCN(C(=O)C2CCCCC2)CC1
4,> 32,CCCC(=O)N1CCC(C(=O)N(C)Cc2cc(Cl)cc(-c3cc(-c4cc(C(F)(F)F)ccc4Cl)c(C#N)c(=O)[nH]3)c2O)CC1

# System: not listed separately
# Experiment: Solubility at pH 7.4 by shake flask method
# Assay type: physicochemical
# Conditions: buffer
row,solubility thermodynamic [µM],SMILES
1,300,CC(=O)N1CCC(C(=O)N(C)Cc2cc(Cl)cc(-c3cc(-c4cc(C(F)(F)F)ccc4Cl)c(C#N)c(=O)[nH]3)c2O)CC1
2,138,COCC(=O)N1CCC(C(=O)N(C)Cc2cc(Cl)cc(-c3cc(-c4cc(C(F)(F)F)ccc4Cl)c(C#N)c(=O)[nH]3)c2O)CC1
